Source: patent publication US12344600B2, “c-Myc mRNA translation modulators and uses thereof in the treatment of cancer” (Anima Biotech Inc., priority 2022, dated 2025)
Starred links: 1 amine or outer side, 2 acyl side, 3 side chain; linkers in the order of their positions; H or OH if unused. Positions of bridges follow the written chain, without caps; N, C: chain ends. Non-standard residues stand in square brackets, D forms with d. Residues, ends and D or L forms follow the SMILES beside them. Chains are numbered I, II in the order given. Actinocin(9to1) = Cc1c2oc3c(C)ccc(C(=O)[*:1])c3nc-2c(C(=O)[*:2])c(N)c1=O; NMeV = CN[C@H](C(=O)O)C(C)C; Sar = CNCC(=O)O

Columns and labels:
Type in all cases: cell-based, human
c-Myc = c-Myc immunofluorescence assay; conditions: A549 cells, 24 hours, FIG. 3 upper panel
Method in brief: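 Read-out is imaged c-Myc immunofluorescence, nucleus-segmented, in A549 lung carcinoma cells exposed to compound dose series for 24 h after 48 h growth. Fixation 4% paraformaldehyde, Triton permeabilization, antibody staining at room temperature; EC50 from logistic fit of signal versus concentration.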

c-Myc mRNA [1] = assay: Fluorescent in situ hybridization (FISH) assay; conditions: A549 cells, 4 hours, FIG. 3 lower panel
Method: A549 cells were incubated with compounds for 24 hours (FIG. 3, upper panel) and c-Myc protein detected by immunofluorescence. In parallel, A549 cells were incubated with compounds for 4 hours and c-Myc mRNA was visualized by microscopy using c-Myc mRNA specific fluorescent-tagged probes (FIG. 3, lower panel).
A549 cells were grown in 384-wells plates (Perkin Elmer, Cat. 6057300) for 48 hours, treated with compounds for 4 hours and then fixed for 20 min in 4% paraformaldehyde. Next day, permeabilization was done for 90 min at 4° C., using 70% ethanol. Then, the cells were incubated for 10 min with 10% formamide in 10% saline-sodium citrate. Fluorescently labeled customer DNA probes that target c-Myc (Cy3, BioSearch Technologies, Cat. SMF-1063-5) and GAPDH (Cy5, BioSearch Technologies, Cat. SMF-2019-1) mRNAs were hybridized overnight at 37° C. in a dark chamber in 10% formamide. The next day, cells were washed twice with 10% formamide for 30 min. […]
Following RNA FISH experiments, images of cells were taken with Operetta (Perkin Elmer, USA), a wide-field fluorescence microscope at ×63 magnification. […] In Columbus, cells were identified by their nucleus, using the “Find Nuceli” module, cytoplasm was detected based on the FISH-channel, and single mRNAs in the cytoplasm and transcription sites in the nucleus were detected using “Find Spots” module. […]

c-Myc protein = c-Myc protein level in A549 cells (imaging)
Text: (§1) A549 cells were exposed to vehicle, general transcription inhibitor actinomycin D or anti-c-Myc compound. […] Cell nuclei stained with DAPI, c-Myc protein, c-Myc mRNA and transcription sites are signed on the images.

c-Myc mRNA [2] = assay: c-Myc mRNA level and transcription sites in A549 cells (imaging)
Text: as §1

Cc1c2oc3c(C)ccc(C(=O)N[C@@H]4C(=O)N[C@H](C(C)C)C(=O)N5CCC[C@H]5C(=O)N(C)CC(=O)N(C)[C@@H](C(C)C)C(=O)O[C@@H]4C)c3nc-2c(C(=O)N[C@@H]2C(=O)N[C@H](C(C)C)C(=O)N3CCC[C@H]3C(=O)N(C)CC(=O)N(C)[C@@H](C(C)C)C(=O)O[C@@H]2C)c(N)c1=O [actinomycin D] (I: T[dV]P[Sar][NMeV] / II: T[dV]P[Sar][NMeV]; ester I:1-I:C, II:1-II:C; linker I:N-II:N via Actinocin(9to1))
c-Myc protein by immunofluorescence (c-Myc): reduced c-Myc protein | c-Myc mRNA in the cytoplasm (c-Myc mRNA [1]): inhibited | c-Myc transcription site (spots inside the nucleus) (c-Myc mRNA [1]): inhibited transcription site | c-Myc protein level (c-Myc protein): significant decrease | c-Myc mRNA level as well as transcription sites (c-Myc mRNA [2]): complete reduction
